Positions of bridges follow the written chain, without caps; N, C: chain ends. Non-standard residues stand in square brackets, D forms with d. Residues, ends and D or L forms follow the SMILES beside them. ξ: configuration not given here. *: point of attachment. DOTA = O=C(O)CN1CCN(CC(=O)O)CCN(CC(=O)*)CCN(CC(=O)O)CC1; 1Nal = N[C@@H](Cc1cccc2ccccc12)C(=O)O; 2Nal = N[C@@H](Cc1ccc2ccccc2c1)C(=O)O; Val(3-OH) = CC(C)(O)[C@H](N)C(=O)O; aIle = CC[C@@H](C)[C@H](N)C(=O)O; Aad = N[C@@H](CCCC(=O)O)C(=O)O; Gly(cPr) = N[C@H](C(=O)O)C1CC1; aThr = C[C@H](O)[C@H](N)C(=O)O; Pen = CC(C)(S)[C@H](N)C(=O)O; hLeu = CC(C)CC[C@H](N)C(=O)O; Nle = CCCC[C@H](N)C(=O)O; ξV = CC(C)C(N)C(=O)O
Molecular target: T1, human 4lg B7-H3 (Homo sapiens, UniProt Q5ZPR3)
T1 sequence (Q5ZPR3 29-534): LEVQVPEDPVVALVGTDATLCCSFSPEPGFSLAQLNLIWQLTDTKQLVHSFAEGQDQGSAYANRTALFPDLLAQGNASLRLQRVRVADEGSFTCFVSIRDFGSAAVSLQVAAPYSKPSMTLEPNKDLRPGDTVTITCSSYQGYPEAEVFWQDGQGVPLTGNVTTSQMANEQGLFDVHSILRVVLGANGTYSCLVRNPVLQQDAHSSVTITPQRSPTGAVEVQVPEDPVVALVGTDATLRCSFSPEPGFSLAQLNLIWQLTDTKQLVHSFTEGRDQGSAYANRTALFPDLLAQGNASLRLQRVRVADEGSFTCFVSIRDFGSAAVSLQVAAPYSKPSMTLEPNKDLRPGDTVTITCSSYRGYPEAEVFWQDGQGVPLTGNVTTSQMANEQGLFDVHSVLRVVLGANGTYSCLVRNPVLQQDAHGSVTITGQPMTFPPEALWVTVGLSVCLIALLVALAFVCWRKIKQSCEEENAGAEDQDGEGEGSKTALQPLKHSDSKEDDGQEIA
Assay: Affinity determination by surface plasmon resonance (SPR) to 4Ig B7-H3
Conditions: SPR KD—25° C., 4Ig B7-H3; 25° C. flow cell temperature

| Structure (SMILES) | Kd |
| --- | --- |
| CCCC[C@H](NC(C)=O)C(=O)N[C@@H](Cc1ccc(O)cc1)C(=O)N[C@H]1CSSC[C@@H](C(=O)N[C@@H](Cc2c[nH]c3ccccc23)C(=O)N[C@@H](Cc2ccccc2)C(=O)N[C@H](C(=O)N[C@H](CCCCNC(=O)CN2CCN(CC(=O)O)CCN(CC(=O)O)CCN(CC(=O)O)CC2)C(=O)O)[C@@H](C)O)NC(=O)[C@H](Cc2ccc(O)cc2)NC(=O)[C@H](C(C)C)NC(=O)[C@H](CC(=O)O)NC(=O)[C@H](CCCC(=O)O)NC(=O)[C@H](CCCCN)NC(=O)CNC(=O)[C@H](C(C)C)NC1=O [compound 116, Ac-Nle-Y-C-V-G-K-HomoGlu-D-V-Y-C-W-F-Thr-dLys(DOTA)-COOH] (Ac-[Nle]YCVGK[Aad]DVYCWFT[dK](DOTA)-OH; disulfide 3-11) | 10 to 100 nM |
| CC(=O)N[C@@H](CCC(C)C)C(=O)N[C@@H](Cc1ccc(O)cc1)C(=O)N[C@@H]1C(=O)N[C@@H](C(C)C)C(=O)NCC(=O)N[C@@H](CCCCN)C(=O)N[C@@H](Cc2ccc(O)cc2)C(=O)N[C@@H](CC(=O)O)C(=O)N[C@@H](C(C)C)C(=O)N[C@@H](Cc2ccc(O)cc2)C(=O)N[C@H](C(=O)N[C@@H](Cc2c[nH]c3ccccc23)C(=O)N[C@@H](Cc2ccccc2)C(=O)N[C@H](C(=O)N[C@H](CCCCNC(=O)CN2CCN(CC(=O)O)CCN(CC(=O)O)CCN(CC(=O)O)CC2)C(N)=O)[C@@H](C)O)CSSC1(C)C [compound 117, Ac-hLeu-Y-Pen-V-G-K-Y-D-V-Y-C-W-F-Thr-dLys(DOTA)-CONH2] (Ac-[hLeu]Y[Pen]VGKYDVYCWFT[dK](DOTA)-NH2; disulfide 3-11) | 10 to 100 nM |
| CC(=O)N[C@@H](CCC(C)C)C(=O)N[C@@H](Cc1ccc(O)cc1)C(=O)N[C@H]1CSSC[C@@H](C(=O)N[C@@H](Cc2c[nH]c3ccccc23)C(=O)N[C@@H](Cc2ccccc2)C(=O)N[C@H](C(=O)N[C@H](CCCCNC(=O)CN2CCN(CC(=O)O)CCN(CC(=O)O)CCN(CC(=O)O)CC2)C(N)=O)[C@@H](C)O)NC(=O)[C@H](Cc2ccc(O)cc2)NC(=O)[C@H](C(C)C)NC(=O)[C@H](CC(=O)O)NC(=O)[C@H](Cc2ccc(O)cc2)NC(=O)[C@H](CCCCN)NC(=O)CNC(=O)[C@H](C2CC2)NC1=O [compound 119, Ac-hLeu-Y-C-Cpg-G-K-Y-D-V-Y-C-W-F-Thr-dLys(DOTA)-CONH2] (Ac-[hLeu]YC[Gly(cPr)]GKYDVYCWFT[dK](DOTA)-NH2; disulfide 3-11) | 10 to 100 nM |
| CC(=O)N[C@@H](CCC(C)C)C(=O)N[C@@H](Cc1ccc(O)cc1)C(=O)N[C@H]1CSSC[C@@H](C(=O)N[C@@H](Cc2c[nH]c3ccccc23)C(=O)N[C@@H](Cc2ccccc2)C(=O)N[C@H](C(=O)N[C@H](CCCCNC(=O)CN2CCN(CC(=O)O)CCN(CC(=O)O)CCN(CC(=O)O)CC2)C(N)=O)[C@@H](C)O)NC(=O)[C@H](Cc2ccc(O)cc2)NC(=O)[C@H](C(C)C)NC(=O)[C@H](CC(=O)O)NC(=O)[C@H](Cc2ccc(O)cc2)NC(=O)[C@H](CCCCN)NC(=O)CNC(=O)[C@H]([C@H](C)O)NC1=O [compound 120, Ac-hLeu-Y-C-alloThr-G-K-Y-D-V-Y-C-W-F-Thr-dLys(DOTA)-CONH2] (Ac-[hLeu]YC[aThr]GKYDVYCWFT[dK](DOTA)-NH2; disulfide 3-11) | 10 to 100 nM |
| CC[C@@H](C)[C@@H]1NC(=O)[C@@H](NC(=O)[C@H](Cc2ccc(O)cc2)NC(=O)[C@H](CCC(C)C)NC(C)=O)CSSC[C@@H](C(=O)N[C@@H](Cc2c[nH]c3ccccc23)C(=O)N[C@@H](Cc2ccccc2)C(=O)N[C@H](C(=O)N[C@H](CCCCNC(=O)CN2CCN(CC(=O)O)CCN(CC(=O)O)CCN(CC(=O)O)CC2)C(N)=O)[C@@H](C)O)NC(=O)[C@H](Cc2ccc(O)cc2)NC(=O)[C@H](C(C)C)NC(=O)[C@H](CC(=O)O)NC(=O)[C@H](Cc2ccc(O)cc2)NC(=O)[C@H](CCCCN)NC(=O)CNC1=O [compound 121, Ac-hLeu-Y-C-allolle-G-K-Y-D-V-Y-C-W-F-Thr-dLys(DOTA)-CONH2] (Ac-[hLeu]YC[aIle]GKYDVYCWFT[dK](DOTA)-NH2; disulfide 3-11) | 1 to 10 nM |
| CC(=O)N[C@@H](CCC(C)C)C(=O)N[C@@H](Cc1ccc(O)cc1)C(=O)N[C@H]1CSSC[C@@H](C(=O)N[C@@H](Cc2c[nH]c3ccccc23)C(=O)N[C@@H](Cc2ccccc2)C(=O)N[C@H](C(=O)N[C@H](CCCCNC(=O)CN2CCN(CC(=O)O)CCN(CC(=O)O)CCN(CC(=O)O)CC2)C(N)=O)[C@@H](C)O)NC(=O)[C@H](Cc2ccc(O)cc2)NC(=O)[C@H](C(C)C)NC(=O)[C@H](CC(=O)O)NC(=O)[C@H](Cc2ccc(O)cc2)NC(=O)[C@H](CCCCN)NC(=O)CNC(=O)[C@H](C(C)(C)O)NC1=O [compound 122, Ac-hLeu-Y-C-hydroVal-G-K-Y-D-V-Y-C-W-F-Thr-dLys(DOTA)-CONH2] (Ac-[hLeu]YC[Val(3-OH)]GKYDVYCWFT[dK](DOTA)-NH2; disulfide 3-11) | 10 to 100 nM |
| CC(=O)N[C@@H](CCC(C)C)C(=O)N[C@@H](Cc1ccc(O)cc1)C(=O)N[C@H]1CSSC[C@@H](C(=O)N[C@@H](Cc2c[nH]c3ccccc23)C(=O)N[C@@H](Cc2ccccc2)C(=O)N[C@H](C(=O)N[C@H](CCCCNC(=O)CN2CCN(CC(=O)O)CCN(CC(=O)O)CCN(CC(=O)O)CC2)C(N)=O)[C@@H](C)O)NC(=O)[C@H](Cc2ccc(O)cc2)NC(=O)[C@H](C2CC2)NC(=O)[C@H](CC(=O)O)NC(=O)[C@H](Cc2ccc(O)cc2)NC(=O)[C@H](CCCCN)NC(=O)CNC(=O)[C@H](C(C)C)NC1=O [compound 123, Ac-hLeu-Y-C-V-G-K-Y-D-Cpg-Y-C-W-F-Thr-dLys(DOTA)-CONH2] (Ac-[hLeu]YCVGKYD[Gly(cPr)]YCWFT[dK](DOTA)-NH2; disulfide 3-11) | 1 to 10 nM |
| CC(=O)N[C@@H](CCC(C)C)C(=O)N[C@@H](Cc1ccc(O)cc1)C(=O)N[C@H]1CSSC[C@@H](C(=O)N[C@@H](Cc2c[nH]c3ccccc23)C(=O)N[C@@H](Cc2ccccc2)C(=O)N[C@H](C(=O)N[C@H](CCCCNC(=O)CN2CCN(CC(=O)O)CCN(CC(=O)O)CCN(CC(=O)O)CC2)C(N)=O)[C@@H](C)O)NC(=O)[C@H](Cc2ccc(O)cc2)NC(=O)[C@H]([C@H](C)O)NC(=O)[C@H](CC(=O)O)NC(=O)[C@H](Cc2ccc(O)cc2)NC(=O)[C@H](CCCCN)NC(=O)CNC(=O)[C@H](C(C)C)NC1=O [compound 125, Ac-hLeu-Y-C-V-G-K-Y-D-alloThr-Y-C-W-F-Thr-dLys(DOTA)-CONH2] (Ac-[hLeu]YCVGKYD[aThr]YCWFT[dK](DOTA)-NH2; disulfide 3-11) | 100 to 300 nM |
| CC[C@@H](C)[C@@H]1NC(=O)[C@H](CC(=O)O)NC(=O)[C@H](Cc2ccc(O)cc2)NC(=O)[C@H](CCCCN)NC(=O)CNC(=O)[C@H](C(C)C)NC(=O)[C@@H](NC(=O)[C@H](Cc2ccc(O)cc2)NC(=O)[C@H](CCC(C)C)NC(C)=O)CSSC[C@@H](C(=O)N[C@@H](Cc2c[nH]c3ccccc23)C(=O)N[C@@H](Cc2ccccc2)C(=O)N[C@H](C(=O)N[C@H](CCCCNC(=O)CN2CCN(CC(=O)O)CCN(CC(=O)O)CCN(CC(=O)O)CC2)C(N)=O)[C@@H](C)O)NC(=O)[C@H](Cc2ccc(O)cc2)NC1=O [compound 126, Ac-hLeu-Y-C-V-G-K-Y-D-allolle-Y-C-W-F-Thr-dLys(DOTA)-CONH2] (Ac-[hLeu]YCVGKYD[aIle]YCWFT[dK](DOTA)-NH2; disulfide 3-11) | < 1 nM |
| CC(=O)N[C@@H](CCC(C)C)C(=O)N[C@@H](Cc1ccc(O)cc1)C(=O)N[C@H]1CSSC[C@@H](C(=O)N[C@@H](Cc2c[nH]c3ccccc23)C(=O)N[C@@H](Cc2ccccc2)C(=O)N[C@H](C(=O)N[C@H](CCCCNC(=O)CN2CCN(CC(=O)O)CCN(CC(=O)O)CCN(CC(=O)O)CC2)C(N)=O)[C@@H](C)O)NC(=O)[C@H](Cc2ccc(O)cc2)NC(=O)[C@H](C(C)(C)O)NC(=O)[C@H](CC(=O)O)NC(=O)[C@H](Cc2ccc(O)cc2)NC(=O)[C@H](CCCCN)NC(=O)CNC(=O)[C@H](C(C)C)NC1=O [compound 127, Ac-hLeu-Y-C-V-G-K-Y-D-hydroVal-Y-C-W-F-Thr-dLys(DOTA)-CONH2] (Ac-[hLeu]YCVGKYD[Val(3-OH)]YCWFT[dK](DOTA)-NH2; disulfide 3-11) | 100 to 300 nM |
| CCCC[C@H](NC(C)=O)C(=O)N[C@@H](Cc1ccc(O)cc1)C(=O)N[C@H]1CSSC[C@@H](C(=O)N[C@@H](Cc2cccc3ccccc23)C(=O)N[C@@H](Cc2ccccc2)C(=O)N[C@H](C(=O)N[C@H](CCCCNC(=O)CN2CCN(CC(=O)O)CCN(CC(=O)O)CCN(CC(=O)O)CC2)C(N)=O)[C@@H](C)O)NC(=O)[C@H](Cc2ccc(O)cc2)NC(=O)C(C(C)C)NC(=O)[C@H](CC(=O)O)NC(=O)[C@H](Cc2ccc(O)cc2)NC(=O)[C@H](CCCCN)NC(=O)CNC(=O)[C@H](C(C)C)NC1=O (stereo partly drawn) [compound 128, Ac-Nle-Y-C-V-G-K-Y-D-V-Y-C-1Nal-F-Thr-dLys(DOTA)-CONH2] (Ac-[Nle]YCVGKYD[ξV]YC[1Nal]FT[dK](DOTA)-NH2; disulfide 3-11) | 1 to 10 nM |
| CCCC[C@H](NC(C)=O)C(=O)N[C@@H](Cc1ccc(O)cc1)C(=O)N[C@H]1CSSC[C@@H](C(=O)N[C@@H](Cc2ccc3ccccc3c2)C(=O)N[C@@H](Cc2ccccc2)C(=O)N[C@H](C(=O)N[C@H](CCCCNC(=O)CN2CCN(CC(=O)O)CCN(CC(=O)O)CCN(CC(=O)O)CC2)C(N)=O)[C@@H](C)O)NC(=O)[C@H](Cc2ccc(O)cc2)NC(=O)C(C(C)C)NC(=O)[C@H](CC(=O)O)NC(=O)[C@H](Cc2ccc(O)cc2)NC(=O)[C@H](CCCCN)NC(=O)CNC(=O)[C@H](C(C)C)NC1=O (stereo partly drawn) [compound 129, Ac-Nle-Y-C-V-G-K-Y-D-V-Y-C-2Nal-F-Thr-dLys(DOTA)-CONH2] (Ac-[Nle]YCVGKYD[ξV]YC[2Nal]FT[dK](DOTA)-NH2; disulfide 3-11) | 100 to 300 nM |

Source: US20250296959A1, “B7-H3 TARGETING PEPTIDES AND CONSTRUCTS THEREOF” (Mariana Oncology Inc., priority 2024, published 2025)
